The values below are quoted from earlier work in US12048763B2, “Compositions and methods for treating sialorrhea” (priority 2021, dated 2024).

SMILES strings stand for the structures.

The conditions of this data set: by 6 months.

As for `C[N+]1(C)CCC(OC(=O)C(O)(c2ccccc2)C2CCCC2)C1` (stereo not shown) [glycopyrrolate], the “participants no longer taking the drug due to adverse effects” value is reported as 45%.
